US20100062437A1, “PARALLEL PROFILLING OF SIGNALING PATHWAYS” (priority 2007, published 2010)
The star is where a group is joined. Cbz = O=C(OCc1ccccc1)*; CH2F = FC*

Columns and labels:
DLD-1 cells = assay: Degradation of long-lived proteins (proteolysis) in DLD-1 cells; type: cell-based, human; details: for effect on ouabain-induced increase in protein degradation: 20 mM NH4Cl and 100 μM leupeptine or 10 mM 3-methyladenine during the chase
From the text: The Na^+/K^+-ATPase is the common target of ouabain, digoxin, and digitoxin (Buckalew, 2005). Na^+/K^+-ATPase inhibition induces a plethora of effects including (a) disruption of the Na^+/K^+ gradient and consequent increase in intracellular [Ca^2+] (Grapengiesser et al., 1993), (b) interference with amino acid uptake (Johnson et al., 1986), and (c) the production of reactive oxygen species resulting in oxidative damage to proteins and organelles (Xie et al., 1999). Each of these individual events is either sufficient or necessary to promote autophagy. The latter maintains cell viability by furnishing essential biochemical building blocks via degradation of existing proteins and organelles in lysosomes (Levine and Klionsky, 2004). However, the effect of ouabain, or its cardiotonic congeners, on autophagy has not been examined. The later was explored by measuring rates of degradation of long-lived proteins, the preferential substrate for lysosomal degradation, in DLD-1 cells. […] The latter implies that macroautophagy, the degradation of sequestered material in a vesicular-based fashion, along with other types of autophagy (i.e. chaperone-mediated autophagy and microautophagy) contribute to ouabain-induced proteolysis.
Intracellular Protein Turnover. Rates of protein synthesis were measured in confluent cells as the incorporation of [3H]leucine [10 μCi/ml (1 Ci=37 GBq)] into acid-insoluble material in the presence of an excess (2.8 mM) of unlabeled leucine in the medium (to minimize differences due to alteration of amino acid transport and/or intracellular amino acid pool sizes). 28 To measure degradation of long-lived proteins, confluent cells were labeled with [3H]leucine (2 μCi/ml) for 48 h at 37° C. and then extensively washed and maintained in complete or amino acid depleted medium containing an excess of unlabeled leucine. Aliquots of the medium taken at different times were precipitated with trichloroacetic acid, and proteolysis was calculated as the amount of acid precipitable radioactivity converted into acid soluble at each time (Auteri et al., 1983). Where indicated, 20 mM NH4Cl and 100 μM leupeptine or 10 mM 3-methyladenine were added during the chase to block lysosomal proteolysis or macroautophagy, respectively.

[1] = system: hSMG1 transcription sites; assay: Fluorescence in situ hybridization (FISH) of active hSMG1 transcription sites in DLD-1 cells; type: cell-based, human; details: ouabain 10 μM for 1 hr, untreated 0.19
From the text: The branched chain DNA assay affords an averaged expression response from a cell population. The magnitude of this response is a function of actin mRNA levels, a baseline that furnishes relative, but not absolute, hSMG1 mRNA quantity. Since actin mRNA levels may be susceptible to influence by these drugs as well, fluorescence in situ hybridization was employed to directly visualize hSMG1 mRNA transcription sites in the DLD-1 cell line. […] Furthermore, these enhanced levels of mRNA synthesis rate and quantity directly translate into higher proteins levels, as exemplified by the ouabain-induced 2.7-fold increase in hSMG1 protein in DLD-1 cells (FIG. 2).
Fluorescence in situ hybridization (FISH). Previously described oligomer probes, each 50 bases in length from four regions of the hSMG1 gene, were designed with OLIGO software from Molecular Biology Insights, Inc., and synthesized on an Applied Biosystems automated DNA/RNA synthesizer (Capodieci et al., 2005). The activated fluorophore cy3 (Amersham) was used to label the probes. DLD-1 cells were seeded onto gelatinized coverslips, incubated as described above for 24 hr, and then treated with ouabain (10 μm) for 1 hr. […] The FISH specimens were imaged and analyzed as previously described (Capodieci et al., 2005).

mTOR = mTOR mRNA quantity in DLD-1 cells in response to ouabain; type: cell-based, human
From the text: (§1) hSMG1 is a member of the PIKK family, which also includes ATM, ATR, mTOR, and DNA-PK (Therien and Blostein, 2000). These large, structurally homologous, proteins have been implicated as participants in the cellular response to various forms of stress.

ATM = ATM mRNA quantity in DLD-1 cells in response to ouabain; type: cell-based, human
From the text: as §1

hSMG1 mRNA [2] = assay: Drug library screen, hSMG1 mRNA quantitation by branched DNA assay in HeLa cells; type: cell-based, human
Method: HeLa cells were separately exposed to each drug from the drug library in a multiwell plate format. After 24 h, hSMG mRNA was captured and quantified using a branched DNA assay (Collins et al., 1997). Actin mRNA levels were simultaneously measured from the same cell lysate in order to compensate for differences in viable cell number as a consequence of drug treatment. […] Both agents bind to and inhibit the Na^+/K^+-ATPase (Therien and Blostein, 2000).
(§2) Drug Library Screen and hSMG1 message quantitation. The QuantiGene® Explore kit (Panomics, Inc.) was used to furnish a direct quantitation of mRNA in a 96 well format. The “housekeeper gene” […] was selected as an intracellular control. Specific oligonucleotide probes for hSMG1, including capture extenders (CE), label extenders (LE) and blocking probes (BL) were designed with the Panomics ProbeDesigner™ software and synthesized. Prior to drug exposure, HeLa cells were incubated for 24 hr in 150 μL Dulbecco's modified Eagle Medium (DMEM) with 10% fetal bovine serum (FBS) and DLD-1 cells were incubated for 24 hr in 150 μL MEM with 1 mM MEM nonessential amino acids, 1 mM sodium pyrurate, 0.15% sodium bicarbonate, and 10% FBS. Cells were then exposed to various concentrations of the drugs for 24 hr and then lysed via incubation in 75 μL lysis buffer (QuantiGene® Explore kit) at 53° C. for 1 hr. Capture of hSMG1 and actin mRNA was conducted according to the manufacturers instructions and quantification performed using a microplate luminometer.

hSMG1 mRNA [3] = assay: hSMG1 mRNA quantitation (branched DNA assay) in DLD-1 cells exposed to ouabain; type: cell-based, human
Method: The QuantiGene® Explore kit (Panomics, Inc.) was used to furnish a direct quantitation of mRNA in a 96 well format. The “housekeeper gene” 13-actin was selected as an intracellular control. Specific oligonucleotide probes for hSMG1, including capture extenders (CE), label extenders (LE) and blocking probes (BL) were designed with the Panomics ProbeDesigner™ software and synthesized. Prior to drug exposure, HeLa cells were incubated for 24 hr in 150 μL Dulbecco's modified Eagle Medium (DMEM) with 10% fetal bovine serum (FBS) and DLD-1 cells were incubated for 24 hr in 150 μL MEM with 1 mM MEM nonessential amino acids, 1 mM sodium pyrurate, 0.15% sodium bicarbonate, and 10% FBS. Cells were then exposed to various concentrations of the drugs for 24 hr and then lysed via incubation in 75 μL lysis buffer (QuantiGene® Explore kit) at 53° C. for 1 hr. Capture of hSMG1 and actin mRNA was conducted according to the manufacturers instructions and quantification performed using a microplate luminometer.

ATR = ATR mRNA quantity in DLD-1 cells in response to ouabain; type: cell-based, human
From the text: as §1

DNAPK = DNAPK mRNA quantity in DLD-1 cells in response to ouabain; type: cell-based, human
From the text: as §1

hSMG1 mRNA [4] = assay: hSMG1 over-expression response to ouabain in other cell lines; type: cell-based
hSMG1 protein = hSMG1 protein quantitation by Western blot in DLD-1 cells; type: cell-based, human; details: 10 μM ouabain for 24 hr
Method: hSMG1 Protein Quantitation. DLD-1 cells were exposed to 10 μM ouabain for 24 hr and subsequently lysed. Total protein concentration, following centrifugation, was determined using the BCA Protein Assay Kit (Pierce). Following electrophoresis, the membrane was divided and the individual halves separately exposed to the SMG1 antibody BL1657 (Bethyl Laboratories) and the actin antibody A5441 (Sigma) and then subsequently incubated with the appropriate horseradish peroxidase conjugated secondary antibodies. The membranes were treated with the Pierce Supersignal West Pico chemiluminescent reagent and quantified.

HEK293 cells = assay: Rate of proteolysis in HEK293 cells after hSMG1 RNAi knockdown; type: cell-based, human; details: RNAi knockdown of hSMG1, lysosomal inhibitor added
From the text: Autophagy is the quintessential cellular response to limited nutrient supplies and/or the presence of damaged cytoplasmic components (Levine and Yuan, 2005). The corresponding ouabain-induced overexpression of hSMG1 may be a biochemical mechanism by which metabolic homeostasis is re-established, either by inhibiting or promoting autophagy. The possible influence of hSMG1 on autophagy was examined via a series of RNAi knockdown experiments. […] Consequently, all knockdown experiments were performed using the 293 cell line. Following RNAi knockdown, cells were either exposed to or deprived of amino acids and the effect on the rate of proteolysis noted. […] Protein degradation is enhanced in RNAi knockdown cells versus their unaltered counterparts (FIG. 3a). […]
Intracellular Protein Turnover. Rates of protein synthesis were measured in confluent cells as the incorporation of [3H]leucine [10 μCi/ml (1 Ci=37 GBq)] into acid-insoluble material in the presence of an excess (2.8 mM) of unlabeled leucine in the medium (to minimize differences due to alteration of amino acid transport and/or intracellular amino acid pool sizes). […] Aliquots of the medium taken at different times were precipitated with trichloroacetic acid, and proteolysis was calculated as the amount of acid precipitable radioactivity converted into acid soluble at each time (Auteri et al., 1983). […]

hSMG1 mRNA [5] = assay: Counter-screen: block of ouabain-induced hSMG1 overexpression in DLD-1 cells; type: cell-based, human; details: DLD-1 cells, ouabain 10 μM + drug 50 μM, mean ± S.D. of three wells
Method: as §2

Molecule: Cn1cnc(N)c2ncnc1-2 [3-methyladenine]
- lysosomal degradation sensitive to 3-methyladenine (DLD-1 cells; ouabain treated, 10 mM 3-methyladenine): 30.5±3.4%
- effect on ouabain-induced increase in protein degradation (DLD-1 cells; ouabain treated): partially offsets the effect of ouabain

Molecule: C[C@@H]1O[C@@H](O[C@H]2C[C@@H](O)[C@]3(CO)[C@H]4[C@H](O)C[C@]5(C)[C@@H](C6=CC(=O)OC6)CC[C@]5(O)[C@@H]4CC[C@]3(O)C2)[C@H](O)[C@H](O)[C@H]1O [Ouabain, ouabain]
- fraction of cells displaying active hSMG1 transcription sites [1]: 0.63±0.1
- effect on proteolysis (degradation of long-lived proteins) (DLD-1 cells; ouabain 10 μM, compared with amino acid starvation): dramatically enhances proteolysis
- change in mTOR mRNA quantity (mTOR): 1.3±0.1 fold
- change in ATM mRNA quantity (ATM): 1.1±0.1 fold
- enhancement of hSMG1 expression levels (hSMG1 mRNA [2]): 2 fold
- hSMG1 over-expression response (hSMG1 mRNA [3]; DLD-1 adenocarcinoma, ouabain 10 μM): 4.3±0.1 fold
- enhancement in hSMG1 mRNA quantity (hSMG1 mRNA [3]; DLD-1 cells in response to ouabain): 4.3±0.1
- hSMG1 Expression relative to untreated cells (hSMG1 mRNA [3]; DLD-1 cells, ouabain 10 μM alone, mean ± S.D. of three wells): 4.3 ± 0.1
- change in ATR mRNA quantity (ATR): 0.7±0.1 fold
- change in DNAPK mRNA quantity (DNAPK): 0.8±0.1 fold
- hSMG1 over-expression response (hSMG1 mRNA [4]; 786-0 renal carcinoma, ouabain 10 μM): 6.1±0.4 fold
- hSMG1 over-expression response (hSMG1 mRNA [4]; GM02037 wild type fibroblast, ouabain 10 μM): 3.4±0.1 fold
- hSMG1 over-expression response (hSMG1 mRNA [4]; HEK 293, ouabain 10 μM): 3.3±0.2 fold
- hSMG1 over-expression response (hSMG1 mRNA [4]; PC3 prostate carcinoma, ouabain 10 μM): 2.7±0.2 fold
- hSMG1 over-expression response (hSMG1 mRNA [4]; U87 glioblastoma, ouabain 10 μM): 1.4±0.1 fold
- hSMG1 over-expression response (hSMG1 mRNA [4]; primary astrocyte, ouabain 10 μM): 5.4±0.1 fold
- increase in hSMG1 protein (hSMG1 protein): 2.7 fold

Molecule: Cl.N [ammonium chloride]
- effect on ouabain-induced increase in protein degradation (DLD-1 cells; ouabain treated): completely blocked
- effect on protein degradation caused by hSMG1 knockdown (HEK293 cells): only partly mitigates the effect of hSMG1 knockdown on protein degradation

Molecule: CC(=O)N[C@@H](CC(C)C)C(=O)N[C@@H](CC(C)C)C(=O)N[C@H](C=O)CCCNC(=N)N [leupeptin]
- effect on ouabain-induced increase in protein degradation (DLD-1 cells; ouabain treated): completely blocked

Molecule: Cbz-VE(OMe)ID(OMe)-CH2F
- hSMG1 Expression in the presence of ouabain and drug, relative to untreated cells (hSMG1 mRNA [5]): 1.0 ± 0.1

Molecule: IETD-CHO
- hSMG1 Expression in the presence of ouabain and drug, relative to untreated cells (hSMG1 mRNA [5]): 1.0 ± 0.1

Molecule: Z-DEVD-FMK
- hSMG1 Expression in the presence of ouabain and drug, relative to untreated cells (hSMG1 mRNA [5]): 1.2 ± 0.4
